As usually defined, the Kd is the concentration at which binding is half-saturated.

These results are taken from paper PMC12521541, “A novel D-peptide modulates DCLK1 gelsolin interactions, reducing PDAC tumor growth” (Scientific Reports, 2025).

Entries after “also recorded” stand apart in the source; their conditions may differ. Where two headings read alike, the source gives them in different places. Non-standard residues stand in square brackets, D forms with d. Residues, ends and D or L forms follow the SMILES beside them.

Series [1] deals with DCLK1 isoform 1. As to the kind of experiment: Crossreactivity with DCLK1 isoform 1. The format is binding, human.
Series [2] relates to AsPC-1 pancreatic cancer cells. Description: Colony formation assay (clonogenicity), AsPC-1. The format is cell-based. The following applies: blinded study.
In series [3] the test system is Capan-1 pancreatic cancer cells. Description: Colony formation assay (clonogenicity), Capan-1. The format is cell-based. As to conditions: blinded study.
Series [4] deals with AsPC-1 cells. Description: PDAC spheroid self-renewal assay, AsPC-1. As to conditions: Matrigel 7 days or 0.3% agar 3 weeks. The format is cell-based. As for the experimental part:
(§1) AsPC-1 and CAPAN-1 cancer cells were treated with candidate D-peptides or vehicle control and suspended in growth factor-reduced Matrigel™ for 7 days or 0.3% agar for 3 weeks and monitored for spheroid growth. The size and number of spheroids were analyzed, counted, and then compared between the treatment groups[41],[42].

Series [5] concerns Capan-1 cells. As to the kind of experiment: PDAC spheroid self-renewal assay, Capan-1. The following applies: Matrigel 7 days or 0.3% agar 3 weeks. The format is cell-based. As for the experimental part: as §1
Series [6] deals with PDAC cell lines AsPC-1 and Capan-1. As to the kind of experiment: Functional bioassays in PDAC cell lines (overall activity). The format is cell-based. The following applies: summary of bioassays in AsPC-1 and Capan-1. The method, then: (§2) AsPC-1 and CAPAN-1 cells were grown as previously described with varying concentrations of candidate D-peptides[40]. Afterward, we treated cells with TACS MTT Reagent (RND Systems) at 37 C until a dark crystalline precipitate within the cells was observed. NH4OH in DMSO was added and incubated for 10 min while protected from light. We determined the OD550 and averaged it as a percentage of cell proliferation.
as §1

In series [7] the test system is PDAC cells (AsPC-1 and CAPAN-1). As to the kind of experiment: Proliferation assay (MTT). The format is cell-based. The following applies: OD550, in vitro. The method, then: as §2
For series [8], the system named is AsPC-1 xenografts. As to the kind of experiment: AsPC-1 xenograft tumor growth. The following applies: for gross inspection of excised xenografts: AsPC-1 flank xenografts, excised after treatment until day 36. Type of series: in vivo. As for the experimental part:
Athymic nude (Foxn1^nu/Foxn1^nu) mice were purchased from the Jackson Laboratory (Bar Harbor, Maine) and housed in pathogen-free conditions. AsPC-1 cells (1 × 10^7) were injected subcutaneously into the flanks of 4- to 6-week-old mice (n = 3/group). Tumors were measured using a caliper and the volume was calculated as (length × width^2) × 0.5. Once tumors achieved an average size of ~ 100 mm^3 mice were injected via intraperitoneal injection (10 mg/kg, […]) with selected D-peptides. Treatments were continued every three days until day 36. Xenografts were then excised and evaluated by gross inspection.

The nature of series [9]: Assessment of DCLK1 D-peptide toxicity in mice. Type of series: in vivo. The following applies: athymic mice; escalating doses every three days, 750 µg increasing by 500 µg to 4000 µg/mouse; vs saline-treated controls. The method, then:
Supplemental Figure 1. Assessment of DCLK1 D-peptide Toxicity in Mice. Mice received escalating doses of D-peptide 1 every three days, starting with 750 µg (equivalent to 210 nM in blood and extravascular fluid) and increasing by 500 µg per dose, reaching a maximum of 4000 µg/mouse. Monitored toxicity indicators included soft feces, urine stains, depression, rough coat, nasal/ocular discharge, hunching, and body weight changes. […] Major organs were collected, and serum was stored for further biochemical analysis.

For series [10], the system named is DCLK1 isoform 4 / mAb CBT-15. Description: Competition assay: mAb CBT-15 binding to DCLK1 isoform 4. As to conditions: mean ± SEM; *p < 0.01. Also on record: species or system human.
Series [11] relates to DCLK1 isoform 4 / pGSN. Description: ELISA binding of plasma gelsolin (pGSN) to DCLK1 isoform 4. On the set-up: species or system human. The following applies: for effect of peptide on pGSN binding to DCLK1 isoform 4: peptide 20 mg/well (so in the source), pGSN at 2 µg/ml. The method, then:
(§3) Polystyrene microtitre Immulon 2HB plate was coated with freshly prepared (400 ng/50 ml) DCLK1 isoform 4 ([…]) in 0.1 M NaHCO3, pH 8.6, overnight at 4 C. After blocking with 1% gelatin in TTBS at RT, different concentrations of gelsolin or FGF19 were added (2 mg/50ul/well, 1 mg/well, 0.5 mg/well, and 0.25 mg/well at […], proteins diluted in TTBS), and incubated at RT. To study the competitive ability of peptides, we used 20 mg/well of either D-peptide 1, D-peptide 3, D-peptide 5, or the C-terminal peptide antigen for the mAb CBT-15. After incubation at RT, plates were washed with TTBS, and bound gelsolin or FGF19 was detected. Bound plasma gelsolin (ab233671; Abcam, Waltham, MA) was immunodetected with anti-gelsolin Ab (ab11081; Abcam, Waltham, MA) or FGF19 (969-FG-025; Bio-Techne, Minneapolis, MN) immunodetected by anti-FGF19 (sc-390621; Santa Cruz Biotechnology, Dallas, TX). Detection was by alkaline phosphatase-conjugated goat anti-mouse IgG (ab97020; Abcam, Waltham, MA) followed by 1-STEP NBT/BCIP substrate (#34042; ThermoFisher Scientific, Waltham, MA) and quantified at 450 nm on a microplate reader.

In series [12] the test system is DCLK1 isoform 4 / FGF19. As to the kind of experiment: ELISA binding of FGF19 to DCLK1 isoform 4. On the set-up: species or system human. As for the experimental part:
as §3

Series [13] addresses T1, DCLK1 isoform 4 (Homo sapiens, UniProt O15075).
T1 sequence (O15075 687-740 limits assumed): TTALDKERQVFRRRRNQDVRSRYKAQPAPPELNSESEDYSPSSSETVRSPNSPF
Description: SPR analysis of DCLK1 isoform 4 with Gelsolin and FGF19. Type of series: binding. The following applies: for Kinetic 1:1 Ave Kd: kinetic 1:1, average (dissociation rate). The method, then:
Purification of human DCLK1 isoform 4 was performed at the University of Oklahoma Protein Production and Characterization Core Facility (Norman, OK) using an E. coli strain BL21(DE3) pLPP containing the pET19-DCLK1 isoform 4 plasmid. For Bio-layer Interferometry (BLI) experiments, a C-terminal DCLK1 isoform 2/4 His-tagged protein was used (NovoPro, Shanghai, China). All His-tagged proteins were dialyzed using PBS/glycerol to remove imidazole.
Background: Surface plasmon resonance follows binding to a sensor surface in real time, without labels.

Series [14] addresses T2, plasma gelsolin (UniProt P06396 28-782).
T2 construct: plasma gelsolin (pGSN), bought protein; The source is told for the ELISA only; also called pGSN; source: bought: Abcam (ab233671)
Description: SPR; format and conditions not told in the text shown (Fig. 4F, G; Suppl. Table 1). The following applies: both partners purified.

[15] abbreviates: kinetic 1:1, average, read-out: Kinetic 1:1 Ave KD.

T2 sequence (P06396 28-782): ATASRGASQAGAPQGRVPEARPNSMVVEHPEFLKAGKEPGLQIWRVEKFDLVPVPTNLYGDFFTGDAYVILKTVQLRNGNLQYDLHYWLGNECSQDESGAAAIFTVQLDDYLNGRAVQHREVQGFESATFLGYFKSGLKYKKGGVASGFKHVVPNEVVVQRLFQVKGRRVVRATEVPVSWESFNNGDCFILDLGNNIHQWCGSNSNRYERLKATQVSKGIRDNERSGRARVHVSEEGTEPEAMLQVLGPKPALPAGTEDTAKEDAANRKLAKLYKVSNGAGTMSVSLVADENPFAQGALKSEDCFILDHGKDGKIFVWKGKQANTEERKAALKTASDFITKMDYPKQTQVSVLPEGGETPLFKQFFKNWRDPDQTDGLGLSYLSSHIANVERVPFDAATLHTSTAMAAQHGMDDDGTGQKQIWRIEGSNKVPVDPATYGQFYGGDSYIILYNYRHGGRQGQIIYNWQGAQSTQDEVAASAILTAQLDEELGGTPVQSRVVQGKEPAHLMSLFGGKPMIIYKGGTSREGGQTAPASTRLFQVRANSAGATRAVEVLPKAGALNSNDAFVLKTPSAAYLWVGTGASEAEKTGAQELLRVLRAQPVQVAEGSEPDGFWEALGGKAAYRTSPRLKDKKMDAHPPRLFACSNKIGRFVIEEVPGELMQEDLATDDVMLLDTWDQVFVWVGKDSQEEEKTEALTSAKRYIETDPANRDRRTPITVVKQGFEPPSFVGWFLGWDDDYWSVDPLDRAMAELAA

Take `NCC(=O)N[C@H](Cc1c[nH]c2ccccc12)C(=O)N[C@H](Cc1ccc(O)cc1)C(=O)NCC(=O)N[C@H](Cc1c[nH]c2ccccc12)C(=O)NCC(=O)N[C@H](CC(=O)O)C(=O)N[C@H](CC(=O)O)C(=O)O` [D-peptide 1] (H-G[dW][dY]G[dW]G[dD][dD]-OH; N-terminus and C-terminus assumed): the “crossreactivity with isoform 1” value in [1] is “minimal crossreactivity with isoform 1”. The “colony formation (clonogenicity)” value in [2] and in series [3] was “significantly reduced colony formation (clonogenicity) at low micromolar concentrations” each time. In addition, the “spheroid formation / self-renewal capacity” value in series [4] and in series [5] was “markedly impaired self-renewal capacity” throughout. Also, the “potency/activity in the bioassays” value in series [6] was “high potency in the bioassays”. For the same molecule, the PDAC cell proliferation result in series [7] is “modest in vitro proliferation decreases”. Also, the “gross inspection of excised xenografts” value is “no visible necrosis or hemorrhage was observed” in series [8] and “no gross necrosis, hemorrhage, or cavitation” in series [8] (listed as Dpeptide 1). Further, the “reduction of tumor volume compared to controls” value in series [8] (AsPC-1 xenografts, athymic mice, 10 mg/kg intraperitoneal, until day 36, control peptide D-peptide 3) amounted to 60%. Further, in series [8] (AsPC-1 xenografts, every three days for six doses, 36 days, control D-peptide 3 n = 8, D-peptide 1 n = 9, *p < 0.01), the “tumor size/growth compared to control” value is given as “significantly reduced tumor size compared to control”. Besides, the “general toxicity during xenograft treatment” value in series [8] (flank xenograft model) was “without general toxicity in non–DCLK1–expressing tissues”. Besides, the toxicity entry in series [9] is listed as “no adverse effects compared to saline-treated controls; also recorded: no apparent toxicity”. Further, the “competition with mAb CBT-15 for DCLK1 isoform 4 binding” value in series [10] is “interacts at a site distinct from CBT-15’s binding site; also recorded: its epitope is distinct from that of mAb CBT-15”. In addition, the “effect of peptide on pGSN binding to DCLK1 isoform 4” value in series [11] was “did not block the PPI interaction but seemed to improve pGSN binding to DCLK1; also recorded: enhances pGSN binding”; in series [11] (listed as Dpeptide 1), “binds a distinct site and allosterically enhances pGSN association”. The “effect of peptide on FGF19 binding to DCLK1 isoform 4” value in series [12] (peptide 20 mg/well (so in the source)) is given as “weak effect with FGF19-DCLK1 association”.

Regarding FGF19: FGF19 (969-FG-025; Bio-Techne), in series [13] (kinetic 1:1, average), the “Kinetic 1:1 Ave Ka” value is listed as 5.09E+03 M^-1s^1. Also, the “Kinetic 1:1 Ave Kd” value in series [13] is 9.13E-03 s^1. Further, the Kd in series [13] (setting [15]) was found to be 1790 nM; in [13] (steady-state, average, read-out: Steady-state Affinity Ave KD), 970 nM. In addition, the “FGF19 binding to DCLK1 isoform 4” value in series [12] was “bound to DCLK1 isoform 4 similarly to pGSN”.

For Gelsolin, the “Kinetic 1:1 Ave Ka” value in [13] (kinetic 1:1, average) is given as 5.48E+03 M^-1s^1. The “Kinetic 1:1 Ave Kd” value in [13] is recorded as 5.47E-04 s^1. Further, the dissociation constant Kd in [13] (setting [15]) was 99 nM. Besides, the “concentration of maximum pGSN binding to DCLK1 isoform 4” value in series [11] (DCLK1-coated plates, pGSN gradient, R^2 of 0.94) came to 2 µg/ml. For the same molecule, the “pGSN binding to DCLK1 isoform 4” value in series [11] (pGSN gradient) was “consistent, linear binding”.

B1: human DCLK1 isoform 4 (beta-short) (natural protein, UniProt O15075-4 1-433, looked up)
chain: MLELIEVNGTPGSQLSTPRSGKSPSPSPTSPGSLRKQRSSQHGGSSTSLASTKVCSSMDENDGPGEEVSEEGFQIPATITERYKVGRTIGDGNFAVVKECVERSTAREYALKIIKKSKCRGKEHMIQNEVSILRRVKHPNIVLLIEEMDVPTELYLVMELVKGGDLFDAITSTNKYTERDASGMLYNLASAIKYLHSLNIVHRDIKPENLLVYEHQDGSKSLKLGDFGLATIVDGPLYTVCGTPTYVAPEIIAETGYGLKVDIWAAGVITYILLCGFPPFRGSGDDQEVLFDQILMGQVDFPSPYWDNVSDSAKELITMMLLVDVDQRFSAVQVLEHPWVNDDGLPENEHQLSVAGKIKKHFNTGPKPNSTAAGVSVIATTALDKERQVFRRRRNQDVRSRYKAQPAPPELNSESEDYSPSSSETVRSPNSPF
notes: For the library screen the protein was labelled with biotin (NHS-LC-biotin); source: E. coli BL21(DE3) pLPP with the pET19-DCLK1 isoform 4 plasmid, purified
For B1, the dissociation constant (Kd) in [14] was approximately 100 nM.
